Reference: patent publication US20130131161A1, “METHODS AND COMPOSITIONS FOR CARDIOVASCULAR DISEASES AND CONDITIONS” (priority 2009, published 2013)
Where “and” joins values, the source holds several entries; their conditions need not be identical. Equal entries are not always repeated.

System: Human umbilical vein endothelial cells (HUVECs)
Test: eNOS activity analysis: NO, ONOO− and NO/ONOO− release from HUVECs of 50 genotyped donors in response to LA-419 (Example 2)
Type: cell-based
Conditions: LA-419 1 μM
Protocol: Concurrent measurements of NO and ONOO^− were carried out with tandem electrochemical nanosensors combined into one working unit with a total diameter of 200-500 nm (FIG. 1). Their design was based on previously developed and well-characterized chemically modified carbon-fiber technology (Malinski and Taha, 1992; Lvovich and Scheeline, 1997). Each of the nanosensors was made by depositing a sensing material on the tip of a carbon fiber (length 4-5 μm, diameter 0.2-0.5 μm). The fibers were sealed with nonconductive epoxy and electrically connected to copper wires with conductive silver epoxy. A conductive film of polymeric nickel (II) tetrakis(3-methoxy-4-hydroxyphenyl)porphyrin for the NO-sensor and polymeric film of Mn (III) [2.2]paracyclophanylporphyrin was used for the ONOO^−-sensor.
A module of NO/ONOO^− nanosensors (diameter 1-2 μm) with a platinum wire (0.1 mm) counter electrode and saturated calomel reference electrode (SCE) were applied. Differential pulse voltammetry (DPV) and amperometry were performed with a computer-based Gamry VFP600 multichannel potentiostat. DPV was used to measure the basal NO and ONOO^− concentrations, and amperometry was used to measure changes in NO and ONOO^− concentrations from its basal level with time. The DPV current at the peak potential characteristic for NO oxidation (0.65 V) and ONOO^− reduction (−0.45 V) was directly proportional to the local concentrations of these compounds in the immediate vicinity of the sensor. Linear calibration curves (current vs. concentration) were constructed for each sensor from 10 nM to 3 μM before and after measurements with aliquots of NO and ONOO^− standard solutions, respectively. The detection limit of the sensors was 1.0 nM.
The quantification of each analyte (concentration in nM) was performed using a maximum current from amperograms and standard calibration curves. A reproducibility of measurements with nanosensors is relatively high (between 5-12%). […] The sensors were slowly raised 5±2 μm from the surface of a single endothelial cell. The eNOS agonist, calcium ionophore A23187 (CaI) as well as the different drugs were then added to the surrounding media at the cell surface with a nanoinjector that was also positioned by a computer controlled-micromanipulator.
This example describes the genotype-specific response of the three major eNOS variants to 1 μM and 5 μM concentrations of LA-419. The three major genetic polymorphisms studied were the Glu298Asp variant (E298D or 894G→T) in exon 7 of […], the −786T→C variant in the promoter region, and the intron 4 polymorphism (VNTR). All of these variants have possible effects on the cardiovascular system and endothelial dysfunction. For this study, human umbilical vein endothelial cells (HUVECs) from 50 donors between 18 and 32 years of age were used.
For the analysis several analysis techniques were employed. First, the effect of genotype on NO and ONOO^− release was explored within the different concentrations of LA-419 (control, 1 μM, 5 μM), calculated as the average peak release (nmols/L) of NO, ONOO^−, and NO/ONOO^−. The effect of genotype on the net increase in NO, ONOO^−, and NO/ONOO^− for LA-419 (1 μM and 5 μM) as compared to control was also measured. In addition, an analysis was done on the effect of genotype on the % change in NO, ONOO^−, and NO/ONOO^− production for LA-419 (1 μM and 5 μM), calculated as:
% Change=[(avg. LA-419−avg. control)/(avg. control)]*100
Finally, an evaluation was undertaken concerning the effect of genotype on the production of NO, ONOO^−, and NO/ONOO^− as the fold difference of control for LA-419 (1 μM and 5 μM), calculated as:
Fold Difference=(avg. LA-419)/(avg. control)
Within each calculation technique the results were compared for statistical significance using a non-parametric ANOVA Kruskal-Wallace test or a non-parametric Mann-Whitney U test. Statistical significance was set at a p-value <0.05 in a two-tailed distribution. […]

[1] = HUVECs G894T + T-786C Combination of all genotypes other than G/G + T/T
[2] = HUVECs G894T + T-786C variant G/G + T/C
[3] = HUVECs G894T + T-786C variant G/G + T/T (Reference)
[4] = HUVECs G894T + T-786C variant G/T + C/C
[5] = HUVECs G894T + T-786C variant G/T + T/C
[6] = HUVECs G894T + T-786C variant G/T + T/T
[7] = HUVECs G894T + T-786C variant T/T + C/C
[8] = HUVECs G894T + T-786C variant T/T + T/C

CC(=O)SC1COC2C(O[N+](=O)[O-])COC12 (stereo not drawn) [LA-419, S-(6-Nitro-oxi-hexahydro-furo[3,2-b]furan-3-1-il)thioacetate]
Net increase over control NO/ONOO− (mean ± sd) [1]: −0.92 (0.90)
Net increase over control ONOO− (mean ± sd) [1]: −42.43 (111.75) nmols/L
Peak release NO (mean ± sd) [1]: 390.03 (73.13) nmols/L
Peak release NO/ONOO− (mean ± sd) [1]: 1.29 (0.46)
Peak release ONOO− (mean ± sd) [1]: 331.26 (91.43) nmols/L
Net increase over control NO (mean ± sd) [2]: 5.33 (68.90) nmols/L
Net increase over control NO/ONOO− (mean ± sd) [2]: −0.88 (0.63)
Net increase over control ONOO− (mean ± sd) [2]: 13.13 (106.46) nmols/L
Peak release NO (mean ± sd) [2]: 351.00 (88.83) nmols/L
Peak release NO/ONOO− (mean ± sd) [2]: 1.09 (0.51)
Peak release ONOO− (mean ± sd) [2]: 357.00 (94.18) nmols/L
Net increase over control NO (mean ± sd) [3]: 31.22 (71.86) nmols/L
Net increase over control NO/ONOO− (mean ± sd) [3]: 1.16 (9.12)
Net increase over control ONOO− (mean ± sd) [3]: −32.54 (86.18) nmols/L
Peak release NO (mean ± sd) [3]: 374.30 (78.06) nmols/L
Peak release NO/ONOO− (mean ± sd) [3]: 1.19 (0.43)
Peak release ONOO− (mean ± sd) [3]: 338.98 (81.16) nmols/L
Net increase over control NO (mean ± sd) [4]: −53.67 (0) nmols/L
Net increase over control NO/ONOO− (mean ± sd) [4]: −0.24 (0)
Net increase over control ONOO− (mean ± sd) [4]: 228.33 (0) nmols/L
Peak release NO (mean ± sd) [4]: 334.67 (0) nmols/L
Peak release NO/ONOO− (mean ± sd) [4]: 0.64 (0)
Peak release ONOO− (mean ± sd) [4]: 526.67 (0) nmols/L
Net increase over control NO (mean ± sd) [5]: 76.26 (75.55) nmols/L
Net increase over control NO/ONOO− (mean ± sd) [5]: −1.21 (1.06)
Net increase over control ONOO− (mean ± sd) [5]: −81.10 (79.76) nmols/L
Peak release NO (mean ± sd) [5]: 420.44 (56.87) nmols/L
Peak release NO/ONOO− (mean ± sd) [5]: 1.44 (0.32)
Peak release ONOO− (mean ± sd) [5]: 302.82 (59.66) nmols/L
Net increase over control NO (mean ± sd) [6]: 28.92 (13.00) nmols/L
Net increase over control NO/ONOO− (mean ± sd) [6]: −0.99 (1.06)
Net increase over control ONOO− (mean ± sd) [6]: −2.83 (64.48) nmols/L
Peak release NO (mean ± sd) [6]: 409.67 (64.25) nmols/L
Peak release NO/ONOO− (mean ± sd) [6]: 1.37 (0.44)
Peak release ONOO− (mean ± sd) [6]: 321.58 (90.82) nmols/L
Net increase over control NO (mean ± sd) [7]: 20.67 (16.77) nmols/L
Net increase over control NO/ONOO− (mean ± sd) [7]: −0.56 (0.56)
Net increase over control ONOO− (mean ± sd) [7]: −42.44 (9.91) nmols/L
Peak release NO (mean ± sd) [7]: 334.11 (83.36) nmols/L
Peak release NO/ONOO− (mean ± sd) [7]: 0.96 (0.58)
Peak release ONOO− (mean ± sd) [7]: 398.00 (131.00) nmols/L
Net increase over control NO (mean ± sd) [8]: 20.83 (131.76) nmols/L
Net increase over control NO/ONOO− (mean ± sd) [8]: 0.07 (0.61)
Net increase over control ONOO− (mean ± sd) [8]: −227.83 (117.62) nmols/L
Peak release NO (mean ± sd) [8]: 420.83 (4.48) nmols/L
Peak release NO/ONOO− (mean ± sd) [8]: 1.80 (0.16)
Peak release ONOO− (mean ± sd) [8]: 234.67 (23.10) nmols/L
% Change Ratio, % Change NO/% Change ONOO− (mean ± sd) (HUVECs G894T variant G/G): 0.76 (8.64)
Net increase over control NO (mean ± sd) (HUVECs G894T variant G/G): 23.26 (70.68) nmols/L and 23.26 (70.64) nmols/L
Net increase over control NO/ONOO− (mean ± sd) (HUVECs G894T variant G/G): 0.53 (7.59)
Net increase over control ONOO− (mean ± sd) (HUVECs G894T variant G/G): −18.49 (93.20) nmols/L
Peak release NO (mean ± sd) (HUVECs G894T variant G/G): 367.13 (80.46) nmols/L
Peak release NO/ONOO− (mean ± sd) (HUVECs G894T variant G/G): 1.16 (0.45)
Peak release ONOO− (mean ± sd) (HUVECs G894T variant G/G): 344.53 (83.88) nmols/L
% Change Ratio, % Change NO/% Change ONOO− (mean ± sd) (HUVECs G894T variant G/T): −1.15 (0.91)
Net increase over control NO (mean ± sd) (HUVECs G894T variant G/T): 58.52 (72.43) nmols/L
Net increase over control NO/ONOO− (mean ± sd) (HUVECs G894T variant G/T): −1.12 (1.02)
Net increase over control ONOO− (mean ± sd) (HUVECs G894T variant G/T): −46.52 (105.03) nmols/L
Peak release NO (mean ± sd) (HUVECs G894T variant G/T): 413.28 (58.46) nmols/L
Peak release NO/ONOO− (mean ± sd) (HUVECs G894T variant G/T): 1.38 (0.38)
Peak release ONOO− (mean ± sd) (HUVECs G894T variant G/T): 319.43 (81.89) nmols/L
Net increase over control NO (mean ± sd) (HUVECs G894T variant G/T & T/T): 50.30 (71.57) nmols/L
Net increase over control NO/ONOO− (mean ± sd) (HUVECs G894T variant G/T & T/T): −0.93 (0.99)
Net increase over control ONOO− (mean ± sd) (HUVECs G894T variant G/T & T/T): −61.75 (109.14) nmols/L
Peak release NO (mean ± sd) (HUVECs G894T variant G/T & T/T): 403.61 (63.52) nmols/L
Peak release NO/ONOO− (mean ± sd) (HUVECs G894T variant G/T & T/T): 1.36 (0.43)
Peak release ONOO− (mean ± sd) (HUVECs G894T variant G/T & T/T): 322.30 (90.85) nmols/L
% Change Ratio, % Change NO/% Change ONOO− (mean ± sd) (HUVECs G894T variant T/T): −0.66 (1.02)
Net increase over control NO (mean ± sd) (HUVECs G894T variant T/T): 20.73 (66.94) nmols/L
Net increase over control NO/ONOO− (mean ± sd) (HUVECs G894T variant T/T): −0.31 (0.61)
Net increase over control ONOO− (mean ± sd) (HUVECs G894T variant T/T): −116.60 (117.55) nmols/L
Peak release NO (mean ± sd) (HUVECs G894T variant T/T): 368.80 (75.73) nmols/L
Peak release NO/ONOO− (mean ± sd) (HUVECs G894T variant T/T): 1.29 (0.63)
Peak release ONOO− (mean ± sd) (HUVECs G894T variant T/T): 332.67 (129.30) nmols/L
Net increase over control NO (mean ± sd) (HUVECs Intron 4 variant a/a): −25.78 (104.49) nmols/L
Net increase over control NO/ONOO− (mean ± sd) (HUVECs Intron 4 variant a/a): −0.11 (0.56)
Net increase over control ONOO− (mean ± sd) (HUVECs Intron 4 variant a/a): 26.11 (116.99) nmols/L
Peak release NO (mean ± sd) (HUVECs Intron 4 variant a/a): 360.56 (80.60) nmols/L
Peak release NO/ONOO− (mean ± sd) (HUVECs Intron 4 variant a/a): 0.97 (0.57)
Peak release ONOO− (mean ± sd) (HUVECs Intron 4 variant a/a): 421.11 (124.25) nmols/L
Net increase over control NO (mean ± sd) (HUVECs Intron 4 variant b/a): 56.57 (67.97) nmols/L
Net increase over control NO/ONOO− (mean ± sd) (HUVECs Intron 4 variant b/a): 0.28 (0.43)
